Results from patent publication US20210393855A1, “NEW HYDROGELS HAVING A SILYLATED STRUCTURE, AND METHOD FOR OBTAINING SAME” (Universite de Montpellier, priority 2015, published 2021).

Assay: Fluorescein release from hydrogels in phosphate buffer, monitored by HPLC
Type: physicochemical
Conditions: covalently grafted in PEG hydrogel, plateau after 72 hours
Text: FIG. 2: this figure concerns tests to quantify the release of fluorescein from various hydrogels according to the invention. The hydrogels grafted with fluorescein by covalent bond show much lower release rates than the hydrogel containing fluorescein simply enclosed with no covalent bond.
In order to show the covalent incorporation of a (bio)molecule into the gel and the absence of release over time of the grafted molecules, fluorescein derivatives were selected to be chemically linked to the hydrogels in accordance with the present invention (see FIG. 2 for the exact formulae). Thus, if there were to be a release of the grafted molecules, the use of fluorescein would make it possible to easily detect it.
Fluorescein isothiocyanate (FITC) was used to prepare two types of fluorescein derivatives giving covalent bonds (triethoxysilane and dimethylhydroxysilane), as well as a non-silylated molecule used as control. Each fluorescein derivative was dissolved at a concentration of 5.2 mM in a solution of bi-silylated hybrid PEG, itself at a concentration of 10% by mass relative to the mass of DPBS used as solvent. Sodium fluoride was added, and the solutions were homogenized. Fluorescent hybrid hydrogels were obtained at 37° C. in 30 minutes. The various hydrogels were placed in phosphate buffer (10 mL) and fluorescein release was monitored by HPLC. […]

SMILES: C[Si](C)(O)CCCNC(=O)NCCCNC(=S)Nc1ccc(-c2c3ccc(=O)cc-3oc3cc(O)ccc23)c(C(=O)O)c1 [dimethythydroxyfluorescein, Hydroxydimethylsilyl Fluorescein]
- maximum release (relative to the total amount of fluorescein introduced): 20%
